Experimental data reported in patent publication US20060122153A1, “Antineoplastic ether lipid compounds with modifications at the sn-2 carbon” (priority 2003, published 2006).
“And” between values parts separate entries of the source, which are not always exact repeats. Identical values can stand only once. “Also recorded” adds a separate entry of the source.

Legend:
[1] = test system: DEVDase activity (Caspase 3) in U937 cell line; assay: DEVDase activity in U937 cell line; type: cell-based, human
Experimental: Suspension cells were seeded at density 3.2×10^5 cells per mL in RPMI-1640 medium (Bio-Whittaker) supplemented with 10% heat inactivated FBS (Bio-Whittaker). Cells were pre-incubated overnight prior to treatment with the ether lipid compounds of the invention. At treatment time cell density was 5×10^5 cells per mL. Cells were incubated with the ether lipid compounds of the invention for various periods of time, usually 6 hours. Cells were collected, washed with 1×DPBS and resuspended in 110 μl of Buffer A (10 mM BEPES-KOH, pH 7.4, 2 mM EDTA, 0.1% CHAPS, 5 mM DTT, 1:100 dilution of protease inhibitors cocktail (Sigma)-DTT and protease inhibitors should be added just before use). […]
Measurement of DEVDase activity was carried out in 100 μl volume, where 10 μg of protein was delivered in 50 μl of Buffer A and 40 μM of substrate Ac-DEVD-AMC was also delivered in 50 μl of Buffer A. All measurements were done in triplicates. Reaction was carried out for 1 hour and generation of fluorescent product of reaction (aminomethylcoumarin) was measured by reading fluorescence at 1em 460 nm (1ex 360 nm). Changes in DEVDase activity were calculated after subtraction of background fluorescence of substrate incubated without proteins, and were expressed as percent of control (DEVDase activity in untreated cells). […]

[2] = test system: platelets in dog whole blood; assay: Platelet aggregation in whole blood (Chronolog whole blood aggregometer)
Experimental: Briefly, whole citrated blood is diluted 1:2 with sterile saline and placed in a warm chamber with a mini stir bar. An electronic probe, measuring electrical resistance, is inserted in the sample. The aggregometer is calibrated and the baseline is observed to detect any spontaneous aggregation. The test sample is added and allowed to run for at least 6 minutes. If the sample is an agonist the platelets will start to aggregate and stick to the electronic probe causing resistance across the electrodes to increase. This resistance, in ohms, is measured 6 minutes post addition of sample. The test samples are run at 25, 100, 200, 400 and 800 uM and compared to 100 uM L-ET-18-OCH3.
Collection of Blood Sample for in vitro Platelet Aggregation Testing: Venous blood is collected in 4.5 mL Vacutainer tubes containing 0.129 M sodium citrate using a 21G needle or larger. Blood is immediately mixed by gentle inversion 15-20 times and kept at room temperature. Dilution ratio is 1 to 9 (3.8% citrate solution:blood). One (2.0 mL) Vacutainer tube containing EDTA is also collected for platelet counts. Complete blood counts (CBC) are measured on the CDC Technologies Hemavet 1500 to ensure that the test subject's platelets are within normal range. Amy vials of hemolytic blood or blood containing any clots should be discarded. Platelet aggregation testing must be completed within 3 hours of blood collection. After this time the ability of platelets to aggregate decreases.
Dilutions were prepared in PBS or saline at 40× concentration. (25 uL test sample are added to 1000 uL diluted blood (1:40)).

[3] = test system: washed human red blood cells; assay: Hemolysis assay with washed human red blood cells; type: cell-based; settings: washed human RBCs; for H10: concentration producing 10% hemolysis; for H50: concentration producing 50% hemolysis
Experimental: The blood was transferred from 1 EDTA tube to a 50 mL conical tissue culture tube and the volume was brought up to 50 mL with PBS.
The blood was centrifuged for 10 minutes at 1500 RPM. The supernatant was removed and the blood was resuspended up to 50 mL with PBS. Next the blood was centrifuged for 10 minutes at 1500 RPM.
The supernatant was removed, and 2.0 mL of packed red blood cells was carefully transferred, using positive displacement pipet, into a fresh conical tissue culture tube. Next, 48 mL PBS was added to achieve a 4% washed RBC solution.
Next, 25, 50, 100 and 200 uM stock solutions of test sample in phosphate buffered saline (PBS) as follows:
Next, 0.5 mL of 4% washed RBC was added to 0.5 mL test sample dilutions (in duplicate). The final concentration of test sample was 50% of working stock solution.
The samples were capped or sealed with Parafilm and the samples were gently mixed. […] The samples were centrifuged for 10 minutes at 1500 RPM. […] Absorbance was measured at 550 nm vs. a water blank. Next, H10 and H50 were determined by graphing Absorbance vs. Test Sample Concentration.

MCF-7 = assay: NCI growth inhibition screen, breast panel; type: cell-based, human; parameters: key to Performance as compared to ET-18-O—CH3: = means equivalent activity; + means that it appears to be significantly better (i.e., by ˜2x); < means it appears to be less active than ET18OCH3 (˜2x); a combination like =/+ or </+ means that activity is dependent upon the isomer; a combination like =/+ or </+ means that activity is dependent upon the isomer; settings: for Performance as compared to ET-18-O—CH3: MCF-7, Breast, from GI50s; for activity compared to ET-18-OCH3 (in words): MCF-7 cell line, NCI screen
Experimental: (§1) Candidates deemed suitable for in vivo testing were then synthesized in large scale quantities and some of this material was sent to the NCI's Developmental Therapeutics Program for a battery of growth inhibitory studies against various human tumor cell lines (60 cell lines, 9 different panels). The remainder of the material was used to assess in vivo efficacy using murine tumor models. Additionally, studies were conducted on the lead candidates to discern mechanism of action with particular emphasis on these agents apoptotic ability as measured by caspase 3 activity. The details (materials and methods) for these various assays are described further in the following discussion.
(§2) Ten compounds were also sent to NCI's Drug Discovery Program for screening against numerous human tumor cell lines (9 panels total: renal ovarian, colon, CNS, non-small cell lung, leukemia, breast, melanoma, and prostate). The data are shown in FIGS. 2a-i which also include data regarding D- and L-ET-18-OCH3 (listed as L-EL and D-EL in the figures). Upon examining the data, one is struck by how 1R and 1a′S standout in comparison to the other compounds, especially for the renal, ovarian, colon, and CNS panels.

BT-549 = assay: NCI growth inhibition screen, breast panel; type: cell-based, human; parameters: key to Performance as compared to ET-18-O—CH3: = means equivalent activity; + means that it appears to be significantly better (i.e., by ˜2x); < means it appears to be less active than ET18OCH3 (˜2x); a combination like =/+ or </+ means that activity is dependent upon the isomer; a combination like =/+ or </+ means that activity is dependent upon the isomer; settings: for Performance as compared to ET-18-O—CH3: BT-549, Breast, from GI50s; for activity compared to ET-18-OCH3 (in words): BT-549 cell line, NCI screen
Experimental: as §1, §2

T-47D = assay: NCI growth inhibition screen, breast panel; type: cell-based, human; parameters: key to Performance as compared to ET-18-O—CH3: = means equivalent activity; + means that it appears to be significantly better (i.e., by ˜2x); < means it appears to be less active than ET18OCH3 (˜2x); a combination like =/+ or </+ means that activity is dependent upon the isomer; a combination like =/+ or </+ means that activity is dependent upon the isomer; settings: for Performance as compared to ET-18-O—CH3: T-47D, Breast, from GI50s; for GI50: breast cancer cell line T-47D, NCI screen
Experimental: as §1, §2

MDA-MB-231/ATCC = assay: NCI growth inhibition screen, breast panel; type: cell-based, human; parameters: key: = means equivalent activity; + means that it appears to be significantly better (i.e., by ˜2x); < means it appears to be less active than ET18OCH3 (˜2x); a combination like =/+ or </+ means that activity is dependent upon the isomer; a combination like =/+ or </+ means that activity is dependent upon the isomer; settings: from GI50s
Experimental: as §1, §2

SMILES	DEVDase activity compared to ET-18-OCH3 (in words) [1]	Relative Platelet Aggregation (Ohms) ([2]; 25 μM)	Relative Platelet Aggregation (Ohms) ([2]; 100 μM)	Relative Platelet Aggregation (Ohms) ([2]; 200 μM)	Relative Platelet Aggregation (Ohms) ([2]; 400 μM)	Relative Platelet Aggregation (Ohms) ([2]; 800 μM)	H10 [3]	H50 [3]	Performance as compared to ET-18-O—CH3 (MCF-7)	activity compared to ET-18-OCH3 (in words) (MCF-7)	Performance as compared to ET-18-O—CH3 (BT-549)	activity compared to ET-18-OCH3 (in words) (BT-549)	Performance as compared to ET-18-O—CH3 (T-47D)	GI50 (T-47D)	Performance as compared to ET-18-O—CH3 (MDA-MB-231/ATCC)	platelet aggregation response (in words) [2]
CCCCCCCCCCCCCCCCCCOC[C@@H](COP(=O)([O-])OCC[N+](C)(C)C)OS(C)(=O)=O [1a′S]	equivalent to ET-18-OCH3; also recorded: more active than 1aR	0 Ohms	0 Ohms	0 Ohms	0 Ohms	0 Ohms	16.5 µM	21.5 µM	128	more active than ET-18-OCH3	0	more active than ET-18-OCH3	<	≥ 15 µM	0	
CCCCCCCCCCCCCCCCCCOCC(COP(=O)([O-])OCC[N+](C)(C)C)OS(C)(=O)=O (stereo not shown) [Compound 1aR]	equivalent to ET-18-OCH3	0 Ohms	0 Ohms	0 Ohms	0 Ohms	0 Ohms	16 µM and 13 µM	21.5 µM and 17 µM	+	more active than ET-18-OCH3	+	more active than ET-18-OCH3	+	< 2.5 µM	=	none of the “L” isomer compounds (1cR or 1aR) evoked an aggregatory response
